According to patent publication US20140093641A1, “LUBRICANT COMPOSITIONS CONTAINING FLUOROOXIRANES” (3MM INNOVATIVE PROPERTIES COMPANY, priority 2011, published 2014):

Assays:
[1] = system: rats; assay: Short-term inhalation test (acute toxicity); assay type: in vivo; settings: rats exposed for four hours at 50,000 ppm in air
[2] = Solubility testing of lubricants, additives and impurities in deposition solvents; assay type: physicochemical
Description: A disposable glass vial was placed on a four-place balance and the mass (MV) recorded. The balance with the glass vial was tared and deposition solvent was added (varying from 1 g to 5 g) and the mass (MS) was recorded. The balance with the deposition solvent in the glass vial was tared again. The lubricant was added in a dropwise fashion using a disposable plastic pipet and the mass (ML) recorded. The glass vial was then mixed by hand for 10 seconds to 30 seconds and the solution clarity was visually observed and recorded. If the solution was hazy, the lubricant was considered to have exceeded the solubility limit of the deposition solvent. If the solution was clear, additional drops of lubricant were added to the glass vial, the mass (ML) was recorded, the glass vial was shaken, and the solution clarity was observed. This process was continued until a hazy solution was observed or more than 10% w/w (weight of lubricant to combined weight of lubricant and deposition solvent) was reached. After a hazy solution or more than 10% w/w was reached, the glass vial with the solution was removed from the balance. The balance was tared and the final mass (MF) of the glass vial with deposition solvent and lubricant was measured and recorded. To account for the evaporative losses of the deposition solvent during the experiment, the mass of the vial and the mass of the lubricant added were subtracted from the total mass of the vial with the deposition solvent and lubricant to determine the final mass of deposition solvent (MS*) in the vial (i.e., MS*=MF−MV−ML). Solubility of the lubricant in deposition solvents was calculated as ML/(ML+MS*) and reported in % w/w (weight/weight).
If the endpoint was not clearly observed, the solubility experiment was repeated. Where a range is reported for solubility, the lower number is the highest soluble value and the higher number is the lowest insoluble value.

| SMILES | acute toxicity, short-term inhalation [1] | Solubility in C6 Oxirane [2] | Solubility in C9 Oxirane [2] | Solubility in NOVEC 7100 [2] | Solubility in PF-5060DL [2] | Solubility in VERTREL XF [2] |
| --- | --- | --- | --- | --- | --- | --- |
| FC(F)(F)C1(F)OC1(F)C(F)(C(F)(F)F)C(F)(F)F (stereo not drawn) [C6 Oxirane, 2,3-difluoro-2-(1,2,2,2-tetrafluoro-1-trifluoromethyl-ethyl)-3-trifluoromethyl-oxirane] | low acute toxicity | – | – | – | – | – |
| CCCCCCCCOC(=O)c1ccccc1C(=O)OCCCCCCCC [DOP, Dioctylphthlate] | – | <0.9% | <1.1% | 5.1% | <0.005% | >30% |
